Assay results as given in US7994209B2, “3-phenoxymethylpyrrolidine compounds” (Theravance, Inc., priority 2009, dated 2011).
Marks after values point to notes of the source that are not given here.

molecular target: T1, hSERT (Homo sapiens, UniProt P31645); assay: fluorescence-based serotonin reuptake inhibition assay (Tsuruda et al. 2010; data indicated by an asterisk); type: cell-based; set-up: expressed in transfected cells; host or cells: HEK-293; conditions: fluorescence-based assay (values with asterisk)
T1 sequence (P31645 whole entry): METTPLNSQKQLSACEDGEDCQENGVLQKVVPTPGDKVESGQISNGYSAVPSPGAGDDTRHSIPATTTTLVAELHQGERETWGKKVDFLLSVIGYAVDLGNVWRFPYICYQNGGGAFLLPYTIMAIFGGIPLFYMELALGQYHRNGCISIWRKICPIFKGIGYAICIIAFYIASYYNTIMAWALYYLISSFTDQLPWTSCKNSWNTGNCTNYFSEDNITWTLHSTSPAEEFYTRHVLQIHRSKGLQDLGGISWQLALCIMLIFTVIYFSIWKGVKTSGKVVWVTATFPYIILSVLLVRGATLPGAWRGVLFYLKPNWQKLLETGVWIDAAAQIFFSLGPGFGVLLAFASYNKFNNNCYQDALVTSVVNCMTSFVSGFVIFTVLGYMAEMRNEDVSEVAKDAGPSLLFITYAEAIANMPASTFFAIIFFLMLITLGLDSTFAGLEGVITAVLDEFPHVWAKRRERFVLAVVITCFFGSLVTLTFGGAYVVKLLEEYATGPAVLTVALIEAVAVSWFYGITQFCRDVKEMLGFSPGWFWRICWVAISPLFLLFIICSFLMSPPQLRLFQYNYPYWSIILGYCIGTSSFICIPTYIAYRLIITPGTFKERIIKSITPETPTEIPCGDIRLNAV

Row | SERT pIC50 | Compound
1 | ≧8.0* | Cc1ccc(OC(C2CCCC2)C2CCNC2)c(Cl)c1 (stereo not drawn) [Example 18-6, 3-[(2-Chloro-4-methylphenoxy)cyclopentylmethyl]pyrrolidine]

same assay, conditions: fluorescence-based assay (values with asterisk), read-out: SERT pIC50 (converted)

Row | IC50 [nM] | Compound
2 | ≤ 10 | CCC[C@@H](Oc1cc(Cl)cc(Cl)c1)[C@@H]1CCNC1 [Example 4-9, (R)-3-[(R)-1-(3,5-Dichlorophenoxy)butyl]pyrrolidine]
3 | ≤ 100 | CCC[C@@H](Oc1cccc(Cl)c1C(F)(F)F)[C@@H]1CCNC1 [Example 4-71, (R)-3-[(R)-1-(3-Chloro-2-trifluoromethylphenoxy)butyl]pyrrolidine]
4 | ≤ 100 | CC(C)[C@H](Oc1c(Cl)cccc1Cl)[C@H]1CCNC1 [Example 6-28, (S)-3-[(S)-1-(2,6-Dichlorophenoxy)-2-methylpropyl]pyrrolidine]
5 | ≤ 100 | CC(C)[C@H](Oc1cccc(Cl)c1C(F)(F)F)[C@H]1CCNC1 [Example 6-49, (S)-3-[(S)-1-(3-Chloro-2-trifluoromethylphenoxy)-2-methylpropyl]pyrrolidine]
6 | ≤ 100 | CC(C)[C@H](Oc1ccc(Cl)cc1C(F)(F)F)[C@H]1CCNC1 [Example 6-51, (S)-3-[(S)-1-(4-Chloro-2-trifluoromethylphenoxy)-2-methylpropyl]pyrrolidine]
7 | ≤ 10 | CC(C)C[C@H](Oc1cccc(Cl)c1Cl)[C@H]1CCNC1 [Example 9, (S)-3-[(S)-1-(2,3-Dichlorophenoxy)-3-methylbutyl]pyrrolidine]
8 | ≤ 10 | CC(C)C[C@H](Oc1cccc(Cl)c1Cl)[C@@H]1CCNC1 [Example 10-24, (R)-3-[(S)-1-(2,3-Dichlorophenoxy)-3-methylbutyl]pyrrolidine]
9 | ≤ 10 | CC(C)C[C@H](Oc1cccc(F)c1Cl)[C@@H]1CCNC1 [Example 10-28, (R)-3-[(S)-1-(2-Chloro-3-fluorophenoxy)-3-methylbutyl]pyrrolidine]
10 | ≤ 10 | Cc1c(Cl)cccc1O[C@@H](CC(C)C)[C@@H]1CCNC1 [Example 10-32, (R)-3-[(S)-1-(3-Chloro-2-methylphenoxy)-3-methylbutyl]pyrrolidine]
11 | ≤ 10 | Cc1c(Cl)cccc1O[C@@H](CC(C)C)[C@H]1CCNC1 [Example 10-33, (S)-3-[(S)-1-(3-Chloro-2-methylphenoxy)-3-methylbutyl]pyrrolidine]
12 | ≤ 100 | CC(C)C[C@@H](Oc1c(Cl)cccc1Cl)[C@H]1CCNC1 [Example 10-55, (S)-3-[(R)-1-(2,6-Dichlorophenoxy)-3-methylbutyl]pyrrolidine]
13 | ≤ 100 | CC(C)C[C@H](Oc1c(Cl)cccc1Cl)[C@@H]1CCNC1 [Example 10-56, (R)-3-[(S)-1-(2,6-Dichlorophenoxy)-3-methylbutyl]pyrrolidine]
14 | ≤ 10 | CC(C)C[C@H](Oc1cc(Cl)cc(Cl)c1)[C@@H]1CCNC1 [Example 10-80, (R)-3-[(S)-1-(3,5-Dichlorophenoxy)-3-methylbutyl]pyrrolidine]
15 | ≤ 10 | CC(C)C[C@H](Oc1cccc2ccccc12)[C@H]1CCNC1 [Example 14-8, (S)-3-[(S)-3-Methyl-1-(naphthalen-1-yloxy)butyl]pyrrolidine]
16 | ≤ 10 | CC(C)C[C@@H](Oc1cccc2ccccc12)[C@H]1CCNC1 [Example 14-9, (S)-3-[(R)-3-Methyl-1-(naphthalen-1-yloxy)butyl]pyrrolidine]
17 | ≤ 100 | Clc1ccccc1O[C@@H](C1CC1)[C@H]1CCNC1 [Example 16-1, (S)-3-[(S)-(2-Chlorophenoxy)cyclopropylmethyl]pyrrolidine]
18 | ≤ 100 | Clc1ccccc1O[C@H](C1CC1)[C@H]1CCNC1 [Example 16-2, (S)-3-[(R)-(2-Chlorophenoxy)cyclopropylmethyl]pyrrolidine]

molecular target: T2, hNET (Homo sapiens, UniProt P23975); assay: fluorescence-based norepinephrine reuptake inhibition assay (Tsuruda et al. 2010; data indicated by an asterisk); type: cell-based; set-up: expressed in transfected cells; host or cells: HEK-293; conditions: norepinephrine reuptake inhibition, fluorescence-based assay (values with asterisk); read-out: NET pIC50 (converted)
T2 sequence (P23975 whole entry): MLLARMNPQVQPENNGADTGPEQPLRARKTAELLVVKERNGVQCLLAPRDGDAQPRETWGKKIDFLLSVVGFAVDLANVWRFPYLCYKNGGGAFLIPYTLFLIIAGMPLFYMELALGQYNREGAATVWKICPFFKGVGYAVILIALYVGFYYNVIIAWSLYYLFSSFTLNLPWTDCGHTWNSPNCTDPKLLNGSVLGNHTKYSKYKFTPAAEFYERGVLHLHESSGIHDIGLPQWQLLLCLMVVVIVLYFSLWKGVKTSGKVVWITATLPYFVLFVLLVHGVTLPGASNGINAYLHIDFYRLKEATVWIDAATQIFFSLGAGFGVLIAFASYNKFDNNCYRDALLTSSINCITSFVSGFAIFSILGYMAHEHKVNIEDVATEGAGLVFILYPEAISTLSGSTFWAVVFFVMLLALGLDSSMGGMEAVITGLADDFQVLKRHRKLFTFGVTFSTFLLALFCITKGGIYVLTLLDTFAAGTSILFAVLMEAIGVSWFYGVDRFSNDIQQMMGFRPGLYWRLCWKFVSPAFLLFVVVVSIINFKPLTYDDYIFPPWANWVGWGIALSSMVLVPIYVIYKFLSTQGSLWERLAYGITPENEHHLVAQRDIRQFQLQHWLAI

Row | IC50 [nM] | Compound
19 | ≤ 10 | CCC[C@@H](Oc1cc(Cl)cc(Cl)c1)[C@@H]1CCNC1 [Example 4-9, (R)-3-[(R)-1-(3,5-Dichlorophenoxy)butyl]pyrrolidine]
20 | ≤ 100 | CCC[C@@H](Oc1cccc(Cl)c1C(F)(F)F)[C@@H]1CCNC1 [Example 4-71, (R)-3-[(R)-1-(3-Chloro-2-trifluoromethylphenoxy)butyl]pyrrolidine]
21 | ≤ 10 | CC(C)[C@H](Oc1c(Cl)cccc1Cl)[C@H]1CCNC1 [Example 6-28, (S)-3-[(S)-1-(2,6-Dichlorophenoxy)-2-methylpropyl]pyrrolidine]
22 | ≤ 10 | CC(C)[C@H](Oc1cccc(Cl)c1C(F)(F)F)[C@H]1CCNC1 [Example 6-49, (S)-3-[(S)-1-(3-Chloro-2-trifluoromethylphenoxy)-2-methylpropyl]pyrrolidine]
23 | ≤ 10 | CC(C)[C@H](Oc1ccc(Cl)cc1C(F)(F)F)[C@H]1CCNC1 [Example 6-51, (S)-3-[(S)-1-(4-Chloro-2-trifluoromethylphenoxy)-2-methylpropyl]pyrrolidine]
24 | ≤ 10 | CC(C)C[C@H](Oc1cccc(Cl)c1Cl)[C@H]1CCNC1 [Example 9, (S)-3-[(S)-1-(2,3-Dichlorophenoxy)-3-methylbutyl]pyrrolidine]
25 | ≤ 10 | CC(C)C[C@H](Oc1cccc(Cl)c1Cl)[C@@H]1CCNC1 [Example 10-24, (R)-3-[(S)-1-(2,3-Dichlorophenoxy)-3-methylbutyl]pyrrolidine]
26 | ≤ 10 | CC(C)C[C@H](Oc1cccc(F)c1Cl)[C@@H]1CCNC1 [Example 10-28, (R)-3-[(S)-1-(2-Chloro-3-fluorophenoxy)-3-methylbutyl]pyrrolidine]
27 | ≤ 10 | Cc1c(Cl)cccc1O[C@@H](CC(C)C)[C@@H]1CCNC1 [Example 10-32, (R)-3-[(S)-1-(3-Chloro-2-methylphenoxy)-3-methylbutyl]pyrrolidine]
28 | ≤ 10 | Cc1c(Cl)cccc1O[C@@H](CC(C)C)[C@H]1CCNC1 [Example 10-33, (S)-3-[(S)-1-(3-Chloro-2-methylphenoxy)-3-methylbutyl]pyrrolidine]
29 | ≤ 10 | CC(C)C[C@@H](Oc1c(Cl)cccc1Cl)[C@H]1CCNC1 [Example 10-55, (S)-3-[(R)-1-(2,6-Dichlorophenoxy)-3-methylbutyl]pyrrolidine]
30 | ≤ 100 | CC(C)C[C@H](Oc1c(Cl)cccc1Cl)[C@@H]1CCNC1 [Example 10-56, (R)-3-[(S)-1-(2,6-Dichlorophenoxy)-3-methylbutyl]pyrrolidine]
31 | ≤ 10 | CC(C)C[C@H](Oc1cc(Cl)cc(Cl)c1)[C@@H]1CCNC1 [Example 10-80, (R)-3-[(S)-1-(3,5-Dichlorophenoxy)-3-methylbutyl]pyrrolidine]
32 | ≤ 10 | CC(C)C[C@H](Oc1cccc2ccccc12)[C@H]1CCNC1 [Example 14-8, (S)-3-[(S)-3-Methyl-1-(naphthalen-1-yloxy)butyl]pyrrolidine]
33 | ≤ 10 | CC(C)C[C@@H](Oc1cccc2ccccc12)[C@H]1CCNC1 [Example 14-9, (S)-3-[(R)-3-Methyl-1-(naphthalen-1-yloxy)butyl]pyrrolidine]
34 | ≤ 10 | Clc1ccccc1O[C@@H](C1CC1)[C@H]1CCNC1 [Example 16-1, (S)-3-[(S)-(2-Chlorophenoxy)cyclopropylmethyl]pyrrolidine]
35 | ≤ 10 | Clc1ccccc1O[C@H](C1CC1)[C@H]1CCNC1 [Example 16-2, (S)-3-[(R)-(2-Chlorophenoxy)cyclopropylmethyl]pyrrolidine]
36 | ≤ 100 | Cc1ccc(OC(C2CCCC2)C2CCNC2)c(Cl)c1 (stereo not drawn) [Example 18-6, 3-[(2-Chloro-4-methylphenoxy)cyclopentylmethyl]pyrrolidine]

molecular target: T2, hNET; assay: hNET membrane radioligand binding assay (3H-nisoxetine), Assay 1; conditions: not given

Row | Ki [nM] | Compound
37 | ≤ 10 | CCC[C@@H](Oc1cc(Cl)cc(Cl)c1)[C@@H]1CCNC1 [Example 4-9, (R)-3-[(R)-1-(3,5-Dichlorophenoxy)butyl]pyrrolidine]
38 | ≤ 10 | CCC[C@@H](Oc1cccc(Cl)c1C(F)(F)F)[C@@H]1CCNC1 [Example 4-71, (R)-3-[(R)-1-(3-Chloro-2-trifluoromethylphenoxy)butyl]pyrrolidine]
39 | ≤ 10 | CC(C)[C@H](Oc1c(Cl)cccc1Cl)[C@H]1CCNC1 [Example 6-28, (S)-3-[(S)-1-(2,6-Dichlorophenoxy)-2-methylpropyl]pyrrolidine]
40 | ≤ 10 | CC(C)[C@H](Oc1cccc(Cl)c1C(F)(F)F)[C@H]1CCNC1 [Example 6-49, (S)-3-[(S)-1-(3-Chloro-2-trifluoromethylphenoxy)-2-methylpropyl]pyrrolidine]
41 | ≤ 10 | CC(C)[C@H](Oc1ccc(Cl)cc1C(F)(F)F)[C@H]1CCNC1 [Example 6-51, (S)-3-[(S)-1-(4-Chloro-2-trifluoromethylphenoxy)-2-methylpropyl]pyrrolidine]
42 | ≤ 10 | CC(C)C[C@H](Oc1cccc(Cl)c1Cl)[C@H]1CCNC1 [Example 9, (S)-3-[(S)-1-(2,3-Dichlorophenoxy)-3-methylbutyl]pyrrolidine]
43 | ≤ 10 | CC(C)C[C@H](Oc1cccc(Cl)c1Cl)[C@@H]1CCNC1 [Example 10-24, (R)-3-[(S)-1-(2,3-Dichlorophenoxy)-3-methylbutyl]pyrrolidine]
44 | ≤ 10 | CC(C)C[C@H](Oc1cccc(F)c1Cl)[C@@H]1CCNC1 [Example 10-28, (R)-3-[(S)-1-(2-Chloro-3-fluorophenoxy)-3-methylbutyl]pyrrolidine]
45 | ≤ 10 | Cc1c(Cl)cccc1O[C@@H](CC(C)C)[C@@H]1CCNC1 [Example 10-32, (R)-3-[(S)-1-(3-Chloro-2-methylphenoxy)-3-methylbutyl]pyrrolidine]
46 | ≤ 10 | Cc1c(Cl)cccc1O[C@@H](CC(C)C)[C@H]1CCNC1 [Example 10-33, (S)-3-[(S)-1-(3-Chloro-2-methylphenoxy)-3-methylbutyl]pyrrolidine]
47 | ≤ 10 | CC(C)C[C@@H](Oc1c(Cl)cccc1Cl)[C@H]1CCNC1 [Example 10-55, (S)-3-[(R)-1-(2,6-Dichlorophenoxy)-3-methylbutyl]pyrrolidine]
48 | ≤ 10 | CC(C)C[C@H](Oc1c(Cl)cccc1Cl)[C@@H]1CCNC1 [Example 10-56, (R)-3-[(S)-1-(2,6-Dichlorophenoxy)-3-methylbutyl]pyrrolidine]
49 | ≤ 10 | CC(C)C[C@H](Oc1cc(Cl)cc(Cl)c1)[C@@H]1CCNC1 [Example 10-80, (R)-3-[(S)-1-(3,5-Dichlorophenoxy)-3-methylbutyl]pyrrolidine]
50 | ≤ 10 | Clc1ccccc1O[C@@H](C1CC1)[C@H]1CCNC1 [Example 16-1, (S)-3-[(S)-(2-Chlorophenoxy)cyclopropylmethyl]pyrrolidine]
51 | ≤ 10 | Clc1ccccc1O[C@H](C1CC1)[C@H]1CCNC1 [Example 16-2, (S)-3-[(R)-(2-Chlorophenoxy)cyclopropylmethyl]pyrrolidine]

molecular target: T1, hSERT; assay: hSERT membrane radioligand binding assay (3H-citalopram), Assay 1; conditions: SERT pKi, hSERT HEK-293 membranes, 1.0 nM 3H-citalopram; values given as lower bounds

Row | Ki [nM] | Compound
52 | ≤ 10 | CCC[C@@H](Oc1cc(Cl)cc(Cl)c1)[C@@H]1CCNC1 [Example 4-9, (R)-3-[(R)-1-(3,5-Dichlorophenoxy)butyl]pyrrolidine]
53 | ≤ 10 | CCC[C@@H](Oc1cccc(Cl)c1C(F)(F)F)[C@@H]1CCNC1 [Example 4-71, (R)-3-[(R)-1-(3-Chloro-2-trifluoromethylphenoxy)butyl]pyrrolidine]
54 | ≤ 10 | CC(C)[C@H](Oc1c(Cl)cccc1Cl)[C@H]1CCNC1 [Example 6-28, (S)-3-[(S)-1-(2,6-Dichlorophenoxy)-2-methylpropyl]pyrrolidine]
55 | ≤ 10 | CC(C)[C@H](Oc1cccc(Cl)c1C(F)(F)F)[C@H]1CCNC1 [Example 6-49, (S)-3-[(S)-1-(3-Chloro-2-trifluoromethylphenoxy)-2-methylpropyl]pyrrolidine]
56 | ≤ 10 | CC(C)[C@H](Oc1ccc(Cl)cc1C(F)(F)F)[C@H]1CCNC1 [Example 6-51, (S)-3-[(S)-1-(4-Chloro-2-trifluoromethylphenoxy)-2-methylpropyl]pyrrolidine]
57 | ≤ 10 | CC(C)C[C@H](Oc1cccc(Cl)c1Cl)[C@H]1CCNC1 [Example 9, (S)-3-[(S)-1-(2,3-Dichlorophenoxy)-3-methylbutyl]pyrrolidine]
58 | ≤ 10 | CC(C)C[C@H](Oc1cccc(Cl)c1Cl)[C@@H]1CCNC1 [Example 10-24, (R)-3-[(S)-1-(2,3-Dichlorophenoxy)-3-methylbutyl]pyrrolidine]
59 | ≤ 10 | CC(C)C[C@H](Oc1cccc(F)c1Cl)[C@@H]1CCNC1 [Example 10-28, (R)-3-[(S)-1-(2-Chloro-3-fluorophenoxy)-3-methylbutyl]pyrrolidine]
60 | ≤ 10 | Cc1c(Cl)cccc1O[C@@H](CC(C)C)[C@@H]1CCNC1 [Example 10-32, (R)-3-[(S)-1-(3-Chloro-2-methylphenoxy)-3-methylbutyl]pyrrolidine]
61 | ≤ 10 | Cc1c(Cl)cccc1O[C@@H](CC(C)C)[C@H]1CCNC1 [Example 10-33, (S)-3-[(S)-1-(3-Chloro-2-methylphenoxy)-3-methylbutyl]pyrrolidine]
62 | ≤ 10 | CC(C)C[C@@H](Oc1c(Cl)cccc1Cl)[C@H]1CCNC1 [Example 10-55, (S)-3-[(R)-1-(2,6-Dichlorophenoxy)-3-methylbutyl]pyrrolidine]
63 | ≤ 10 | CC(C)C[C@H](Oc1c(Cl)cccc1Cl)[C@@H]1CCNC1 [Example 10-56, (R)-3-[(S)-1-(2,6-Dichlorophenoxy)-3-methylbutyl]pyrrolidine]
64 | ≤ 10 | CC(C)C[C@H](Oc1cc(Cl)cc(Cl)c1)[C@@H]1CCNC1 [Example 10-80, (R)-3-[(S)-1-(3,5-Dichlorophenoxy)-3-methylbutyl]pyrrolidine]
65 | ≤ 10 | Clc1ccccc1O[C@@H](C1CC1)[C@H]1CCNC1 [Example 16-1, (S)-3-[(S)-(2-Chlorophenoxy)cyclopropylmethyl]pyrrolidine]
66 | ≤ 10 | Clc1ccccc1O[C@H](C1CC1)[C@H]1CCNC1 [Example 16-2, (S)-3-[(R)-(2-Chlorophenoxy)cyclopropylmethyl]pyrrolidine]
